The NIST ThermoML archive (doi:10.1021/je900093h)

Experiment: molar heat capacity at saturation pressure
Conditions: Crystal, Vacuum adiabatic calorimetry

CCCCCCCCCC(=O)OCC [ethyl decanoate]
Conditions | molar heat capacity [J/K/mol]
5.07 K | 0.5226
5.31 K | 0.6118
5.56 K | 0.7121
5.81 K | 0.825
6.07 K | 0.9558
6.36 K | 1.118
6.69 K | 1.318
7.02 K | 1.545
7.35 K | 1.796
7.7 K | 2.073
8.04 K | 2.376
8.4 K | 2.709
8.76 K | 3.071
9.12 K | 3.453
9.48 K | 3.859
9.85 K | 4.299
10.32 K | 4.888
10.9 K | 5.635
11.48 K | 6.424
12.07 K | 7.27
12.66 K | 8.157
13.26 K | 9.088
13.87 K | 10.03
14.47 K | 11.01
15.09 K | 12.05
15.81 K | 13.35
16.64 K | 14.88
17.48 K | 16.38
18.32 K | 17.92
19.16 K | 19.47
20.01 K | 21.05
21.18 K | 23.32
22.7 K | 26.32
24.23 K | 29.4
25.75 K | 32.51
27.29 K | 35.64
28.39 K | 37.87
29.64 K | 40.42
31.35 K | 43.96
33.22 K | 47.77
35.1 K | 51.55
36.98 K | 55.32
38.87 K | 59.03
40.75 K | 62.74
42.73 K | 66.71
44.82 K | 70.83
46.9 K | 74.94
49 K | 78.99
51.09 K | 82.94
53.19 K | 86.89
55.3 K | 90.74
57.4 K | 94.51
59.52 K | 98.2
61.64 K | 101.8
63.76 K | 105.3
65.89 K | 108.8
68.01 K | 112.1
70.14 K | 115.4
72.38 K | 118.9
74.72 K | 122.4
77.07 K | 125.9
79.44 K | 129.4
80.12 K | 130.3
81.8 K | 132.9
81.98 K | 133
83.85 K | 135.7
84.15 K | 136.2
85.73 K | 138.3
87.62 K | 141
89.51 K | 143.6
91.41 K | 146.2
93.31 K | 148.8
95.22 K | 151.3
97.14 K | 153.8
99.06 K | 156.2
100.98 K | 158.7
102.91 K | 161
104.84 K | 163.3
106.77 K | 165.7
108.71 K | 167.9
110.66 K | 170
112.6 K | 172.2
114.55 K | 174.3
116.5 K | 176.4
118.46 K | 178.5
120.41 K | 180.4
122.37 K | 182.4
124.33 K | 184.3
126.29 K | 186.2
128.26 K | 188
130.23 K | 189.8
130.37 K | 189.7
132.19 K | 191.6
132.31 K | 191.5
134.17 K | 193.3
134.25 K | 193.3
136.14 K | 195.1
136.19 K | 195
138.12 K | 196.8
138.13 K | 196.6
140.08 K | 198.3
140.1 K | 198.4
142.02 K | 200
142.07 K | 200.1
143.97 K | 201.6
144.06 K | 201.8
145.92 K | 203.3
146.04 K | 203.6
147.87 K | 205
148.02 K | 205.3
149.82 K | 206.5
150 K | 206.9
151.77 K | 208.2
151.98 K | 208.5
153.72 K | 209.7
153.97 K | 210
155.68 K | 211.2
155.95 K | 211.5
157.63 K | 212.8
157.93 K | 213.2
159.59 K | 214.4
159.92 K | 214.8
161.55 K | 215.9
161.91 K | 216.3
163.5 K | 217.4
163.89 K | 217.8
165.46 K | 218.9
165.88 K | 219.2
167.42 K | 220.4
167.86 K | 220.8
169.38 K | 222
169.85 K | 222.3
171.34 K | 223.6
171.83 K | 223.9
173.3 K | 225.1
173.81 K | 225.6
175.26 K | 226.6
175.79 K | 227.1
177.23 K | 228.3
177.77 K | 228.7
179.19 K | 229.8
179.74 K | 230.3
180.73 K | 230.9
181.15 K | 231.3
181.61 K | 231.8
181.72 K | 232
182.71 K | 232.5
183.11 K | 233.1
183.59 K | 233.4
183.69 K | 233.6
184.69 K | 234.2
185.07 K | 234.7
185.57 K | 235.1
185.67 K | 235.2
186.66 K | 235.8
187.04 K | 236.4
187.54 K | 236.7
187.64 K | 236.8
188.63 K | 237.5
189 K | 238
189.52 K | 238.4
189.6 K | 238.5
190.6 K | 239.3
190.96 K | 239.7
191.49 K | 240
191.57 K | 240.2
191.61 K | 240.1
192.56 K | 240.9
192.93 K | 241.4
193.45 K | 241.6
193.53 K | 241.9
193.58 K | 241.8
194.53 K | 242.6
194.89 K | 243.1
195.42 K | 243.3
195.48 K | 243.5
195.54 K | 243.5
196.49 K | 244.4
196.85 K | 244.7
197.38 K | 245
197.44 K | 245.2
197.5 K | 245.2
198.44 K | 246.2
198.81 K | 246.5
199.33 K | 246.7
199.39 K | 247
199.46 K | 246.8
200.4 K | 247.8
200.77 K | 248.3
201.28 K | 248.3
201.35 K | 248.7
201.46 K | 248.6
202.35 K | 249.5
202.74 K | 249.9
203.24 K | 250.1
203.29 K | 250.4
203.52 K | 250.4
204.3 K | 251.3
